This is an account of results in ChEMBL document CHEMBL1201862, “PubChem BioAssay data set” (2004).

For orientation: GI50 means the concentration that inhibits growth by half.

Among the test systems are SK-OV-3; CCRF-CEM; OVCAR-8; PC-3; OVCAR-5; KM12; OVCAR-4; M14; Malme-3M; MOLT-4; UACC-257; SK-MEL-2; NCI-H23; MDA-MB-435; SF-295; SF-268; U-251; COLO 205; K562; UO-31.
Common to all, as to experiment: DTP human tumour cell line panel, 48 h

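Interpolation was linear, between the two tested concentrations surrounding the appropriate level; five concentrations were tested over 48 hours in 96-well plates. At the GI50, growth is halved.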 Active and inactive are the calls of the source. Rule as the data show it: active = GI50 up to about 1.1 µM and inactive = higher.

As for `COC(=O)C1=C(C(=O)OC)SC2(S1)C(C(=O)OC)=C(C(=O)OC)Sc1c2ssc1=O`, the GI50 in the test with SK-OV-3 was 8.97 µM (inactive); in the test on CCRF-CEM, 0.076 µM (active); with OVCAR-8, 1.34 µM (inactive); with PC-3 it was 1.43 µM (inactive); with OVCAR-5, 2.11 µM (inactive); in the test with KM12, 4.78 µM (inactive). Also, the GI50 is 1.22 µM (inactive) in the test on OVCAR-4; 1.12 µM (inactive) in the test with M14; 0.61 µM (active) in the test on Malme-3M; 0.353 µM (active) in the test with MOLT-4; 1.51 µM (inactive) in the test on UACC-257; 1.78 µM (inactive) with SK-MEL-2. Moreover, the GI50 with NCI-H23 is 1.78 µM (inactive); in the test on MDA-MB-435, 1.57 µM (inactive); in the test with SF-295, 11.4 µM (inactive); with SF-268, 2.52 µM (inactive); in the test on U-251, 2.12 µM (inactive); in the test with COLO 205, 0.524 µM (active). Moreover, the concentration for 50% growth inhibition (GI50) was 0.547 µM (active) in the test on K562 and 1.63 µM (inactive) in the test with UO-31.
Turning to `CSC(=N\c1ccccc1)/N=C(\SCc1ccccc1)N(C)C`, the GI50 with SK-OV-3 is 3.24 µM (inactive); in the test with CCRF-CEM, 0.27 µM (active); with OVCAR-8, 1.2 µM (inactive); in the test with PC-3, 1.29 µM (inactive); in the test on OVCAR-5, 1.49 µM (inactive); in the test with KM12, 0.48 µM (active). Moreover, the concentration for 50% growth inhibition (GI50) with OVCAR-4 is 0.889 µM (active); with M14, 0.789 µM (active); in the test with Malme-3M, 1.14 µM (inactive); with MOLT-4, 0.382 µM (active); in the test with UACC-257 it was 1.57 µM (inactive); in the test on SK-MEL-2 it was 1.87 µM (inactive). The GI50 in the test on NCI-H23 is 1.24 µM (inactive); in the test on MDA-MB-435, 1.23 µM (inactive); with SF-295, 1.43 µM (inactive); in the test with SF-268, 0.971 µM (active); with U-251 it was 1.12 µM (inactive); in the test with COLO 205, 0.407 µM (active). The GI50 was 0.05 µM (active) in the test with K562 and 1.46 µM (inactive) with UO-31.
As to `COC1N(C2CC(O)C(CO)O2)C(=O)NC(=O)C1(F)Br` (stereo not given), the GI50 is > 50 µM (inactive) in the test with SK-OV-3; 3.53 µM (inactive) with CCRF-CEM; 4.02 µM (inactive) with OVCAR-8; 51.3 µM (inactive) in the test on PC-3; 77.8 µM (inactive) in the test with OVCAR-5; 21.6 µM (inactive) in the test with KM12. Moreover, the GI50 with OVCAR-4 was > 50 µM (inactive); with M14 it was 15 µM (inactive); in the test with Malme-3M, 15.1 µM (inactive); in the test on MOLT-4 it was 11 µM (inactive); in the test with UACC-257, 70.5 µM (inactive); with SK-MEL-2, > 92 µM (inactive). The GI50 in the test on NCI-H23 was 6.73 µM (inactive); with MDA-MB-435, 39.6 µM (inactive); with SF-295, 2.83 µM (inactive); in the test with SF-268, 1.2 µM (inactive); in the test on U-251, 23.9 µM (inactive); in the test on COLO 205 it was 21.6 µM (inactive). The GI50 in the test on K562 is 36.8 µM (inactive); in the test with UO-31, 10.3 µM (inactive).
For the compound `CC(N/N=N/c1ccc(-c2nc3ccccc3[nH]2)cc1)C(=O)O` (stereo not given), the GI50 in the test with SK-OV-3 was > 100 µM (inactive); in the test with CCRF-CEM, 3.18 µM (inactive); in the test on OVCAR-8, 22.2 µM (inactive); in the test on PC-3, 25.6 µM (inactive); in the test with OVCAR-5 it was > 100 µM (inactive); in the test with KM12, 19.2 µM (inactive). Besides, the GI50 in the test with OVCAR-4 was 37.6 µM (inactive); with M14, 35.1 µM (inactive); in the test on Malme-3M it was 26.3 µM (inactive); in the test on MOLT-4, 5.01 µM (inactive); with UACC-257 it was > 100 µM (inactive); in the test with SK-MEL-2, 59.3 µM (inactive). The GI50 in the test with NCI-H23 was 62.2 µM (inactive); in the test with MDA-MB-435 it was 32.7 µM (inactive); in the test on SF-295, 19.6 µM (inactive); in the test on SF-268, 32.7 µM (inactive); with U-251, 18.1 µM (inactive); with COLO 205 it was 25.9 µM (inactive). The results for the GI50 in the test on K562 and in the test with UO-31 were 7.16 µM (inactive) and 39.1 µM (inactive), respectively.
Take `O=C(Cc1ccc(Cl)c(Cl)c1)N(CCc1ccc(Cl)c(Cl)c1)CCN1CCCC1`: the GI50 is 2.69 µM (inactive) in the test with SK-OV-3; 1.31 µM (inactive) in the test with CCRF-CEM; 1.93 µM (inactive) in the test on OVCAR-8; 1.83 µM (inactive) in the test on PC-3; 1.8 µM (inactive) with OVCAR-5; 1.79 µM (inactive) in the test with KM12. Further, the GI50 in the test on OVCAR-4 is 2.19 µM (inactive); with M14 it was 1.77 µM (inactive); in the test with Malme-3M it was 1.73 µM (inactive); in the test on MOLT-4, 1.34 µM (inactive); in the test on UACC-257 it was 1.91 µM (inactive); with SK-MEL-2, 1.8 µM (inactive). Further, the GI50 in the test on NCI-H23 was 1.95 µM (inactive); in the test with MDA-MB-435 it was 1.77 µM (inactive); in the test on SF-295, 1.96 µM (inactive); in the test with SF-268, 2.15 µM (inactive); in the test on U-251, 1.71 µM (inactive); in the test with COLO 205, 1.68 µM (inactive). The GI50 was 1.87 µM (inactive) in the test on K562 and 1.85 µM (inactive) in the test with UO-31.
As for `OC1(c2ccccc2)C2CCN(CC2)C1CN1CCOCC1` (stereo not given), the GI50 in the test on SK-OV-3, in the test with CCRF-CEM, with OVCAR-8, in the test with PC-3, in the test on OVCAR-5 and in the test on KM12 was > 100 µM (inactive) each time. Also, the GI50 in the test with OVCAR-4, in the test with M14, in the test on Malme-3M, in the test with MOLT-4, in the test with UACC-257 and with SK-MEL-2 was > 100 µM (inactive) in each case. For the same compound, the GI50 in the test with NCI-H23, in the test with MDA-MB-435, with SF-295, with SF-268, in the test on U-251 and with COLO 205 was > 100 µM (inactive) each time. Also, the GI50 in the test with K562 and in the test with UO-31 was > 100 µM (inactive) in each case.
`CCN1CC2=C(NC(=S)NC2c2ccc(Cl)cc2)/C(=C/c2ccc(Cl)cc2)C1` (stereo not given): the GI50 with SK-OV-3 is > 100 µM (inactive); in the test with CCRF-CEM, 14.5 µM (inactive); with OVCAR-8, 88.5 µM (inactive); in the test with PC-3, 46.5 µM (inactive); in the test on OVCAR-5 it was > 100 µM (inactive); in the test on KM12 it was > 100 µM (inactive). The GI50 with OVCAR-4 is > 100 µM (inactive); with M14 it was > 100 µM (inactive); with Malme-3M it was 97.3 µM (inactive); with MOLT-4, 10.5 µM (inactive); in the test on UACC-257, > 100 µM (inactive); with SK-MEL-2, > 100 µM (inactive). Moreover, the GI50 in the test with NCI-H23 was > 100 µM (inactive); in the test with MDA-MB-435, 61.9 µM (inactive); in the test on SF-295 it was 67.1 µM (inactive); in the test on SF-268 it was 77.4 µM (inactive); in the test with U-251 it was 45.3 µM (inactive); in the test with COLO 205 it was > 100 µM (inactive). Besides, the GI50 with K562 is 19.5 µM (inactive); in the test on UO-31, > 100 µM (inactive).
Take `C=C1CC2(CC(c3ccccc3OC)OC(c3ccccc3OC)C2)OC1=O` (stereo not given): the GI50 in the test with SK-OV-3 is 12.8 µM (inactive); in the test on CCRF-CEM, 1.71 µM (inactive); in the test with OVCAR-8, 1.8 µM (inactive); with PC-3, 2.06 µM (inactive); in the test on OVCAR-5, 7.46 µM (inactive); with KM12, 2.27 µM (inactive). Also, the GI50 with OVCAR-4 is 4.35 µM (inactive); in the test with M14, 1.72 µM (inactive); in the test with Malme-3M it was 1.72 µM (inactive); in the test on MOLT-4, 2.07 µM (inactive); in the test with UACC-257 it was 2.07 µM (inactive); in the test on SK-MEL-2, 1.91 µM (inactive). Moreover, the GI50 in the test on NCI-H23 is 2.1 µM (inactive); with MDA-MB-435 it was 1.91 µM (inactive); with SF-295, 7.38 µM (inactive); in the test with SF-268, 2.55 µM (inactive); with U-251, 7.16 µM (inactive); in the test on COLO 205, 2.36 µM (inactive). Also, the GI50 was 2.06 µM (inactive) in the test with K562 and 1.52 µM (inactive) in the test with UO-31.
Consider `O=C(O)CNC(=O)c1c2ccccc2nc2ccccc12`, for which the GI50 in the test with SK-OV-3, with CCRF-CEM, in the test with OVCAR-8, with PC-3, with OVCAR-5 and with KM12 was > 100 µM (inactive) each time. Besides, the GI50 with OVCAR-4, in the test on M14, with Malme-3M, in the test with MOLT-4, with UACC-257 and in the test on SK-MEL-2 was > 100 µM (inactive) in each case. Also, the GI50 in the test on NCI-H23, in the test with MDA-MB-435, in the test with SF-295, in the test with SF-268, in the test with U-251 and in the test on COLO 205 was > 100 µM (inactive) throughout. Besides, the GI50 in the test with K562 and in the test with UO-31 was > 100 µM (inactive) throughout.
In the case of `COc1cc2c(NCCCCCO)ncnc2c(OC)c1OC`, the GI50 was > 100 µM (inactive) in the test with SK-OV-3; > 93.3 µM (inactive) with CCRF-CEM; > 100 µM (inactive) in the test with OVCAR-8; > 100 µM (inactive) in the test on PC-3; > 100 µM (inactive) with OVCAR-5; > 100 µM (inactive) with KM12. Moreover, the GI50 with OVCAR-4 is > 100 µM (inactive); in the test on M14, > 100 µM (inactive); in the test on Malme-3M, > 63 µM (inactive); with MOLT-4 it was > 100 µM (inactive); with UACC-257 it was > 100 µM (inactive); with SK-MEL-2 it was > 100 µM (inactive). For the same compound, the GI50 with NCI-H23, in the test on MDA-MB-435, in the test with SF-295, in the test on SF-268, in the test on U-251 and in the test on COLO 205 was > 100 µM (inactive) each time. The GI50 was > 100 µM (inactive) in the test with K562 and > 85.9 µM (inactive) with UO-31.
